Measured values as given in US4291024A, “Cytotoxic liponucleotide analogs” (priority 1980, dated 1981).
Structures can show the parent of a compound that is named as a salt.

Columns and labels:
CMI-DTH reactions = test: CMI-DTH reactions; format: in vivo, mouse
LD10 (lethality) = format: in vivo; conditions: ×4 regimen
[1] = system: mouse antisheep erythrocyte antibody-forming cells; test: Suppression of IgM and IgG mouse antisheep erythrocyte antibody-forming cells (AFC); format: in vivo
[2] = system: leukemia L5178Y ascites cells; test: Survival time of mice bearing leukemia L5178Y ascites cells, Ia-11-diglyceride; format: in vivo, mouse; conditions: for AVERAGE SURVIVAL (DAYS ± S.E.): control 17.6 ± 0.2; for prolongation of survival times: mice bearing leukemia L5178Y cells
Description: Mice (10/group) were inoculated with L5178Y cells (5×10^6 cells/mouse) and drug injections were begun on the second day. The drug in a volume of 0.1 ml was injected intraperitioneally once a day for four consecutive days. Saline was administered to the controls. The percent change in body weight from the onset to the termination of therapy was used as an indication of drug toxicity.

[3] = system: human colon carcinoma HCT-15 cells; test: Antitumor activity against human colon carcinoma in immunosuppressed mice; format: in vivo, mouse; conditions: for TUMOR WEIGHT: control 89.7 ± 4.9
Description: Male B6D2F1 mice (18-22 g, 4/group) were immunosuppressed with 0.25 ml subcutaneous injection of ATS on days -1,0,1,3 and 6. Human colon carcinoma cells (5.0×10^6 cells/mouse) were inoculated subcutaneously into an area slightly above the left inguinal region on day 0. The drug dissolved in saline to a volume of 0.1 ml was injected intraperitoneally once a day for four consecutive days. Saline was administered to the controls. The percent change in body weight from the onset to the day of weighing the tumor was used as an indication of drug toxicity.

[4] = system: murine leukemic cells L5178Y; test: Inhibition of reproduction of murine leukemic cells L5178Y by liponucleotides - 2 hours (dilute agar colony method); format: cell-based; conditions: for viability at 100 µM / viability at 10 µM / viability at 1 µM / viability at 0.1 µM: Mus musculus, L5178Y, 2 hours, untreated control normalized to 100%, read-out: PERCENT SURVIVAL; for viability at 100 µM: 1 × 10^-4 M; for viability at 10 µM: 1 × 10^-5 M; for viability at 1 µM: 1 × 10^-6 M; for viability at 0.1 µM: 1 × 10^-7 M
Description: L5178Y cells (2×10^5 /ml) in the exponential phase of growth were incubated singly with drugs for a period of 2 hours at concentrations of […] to 1×10^-7 M. Cell viability was determined by the dilute agar colony method. Each observation represents the mean value of three experimentations with four replicates per experiment. A minimum of 200 colonies were counted for each group. The cloning efficiency of the untreated cells was approximately 75%; all values were normalized to 100%.

[5] = system: leukemia L5178Y ascites cells; test: Survival time of mice bearing leukemia L5178Y ascites cells, Ia-11-dipalmitin; format: in vivo, mouse; conditions: for PER CENT CHANGE IN LIFE SPAN / AVERAGE SURVIVAL / PER CENT CHANGE IN WEIGHT: i.p. twice a day ×4 days; for AVERAGE SURVIVAL: control 15.0 ± 0.28; for PER CENT CHANGE IN WEIGHT: control -1.4
Description: Mice (10/group) were inoculated with L5178Y cells (5×10^6 cells/mouse) and drug injections were begun on the second day. The drug in a volume of 0.2 ml was injected intraperitoneally twice a day at a five-hour interval for four consecutive days. Distilled water was administered to the controls. The percent change in body weight from the onset to the termination of therapy was used as an indication of drug toxicity.

[6] = system: murine leukemic cells L5178Y; test: Inhibition of reproduction of murine leukemic cells L5178Y by cytotoxic liponucleotide analogs - 72 hours; format: cell-based; conditions: for IC50: read-out: MOLAR CON[…] 50 PERCENT INHIBITION, 50% decrease in number of doublings vs untreated controls, read-out: MOLAR CONCENTRATION CAUSING 50 PERCENT INHIBITION
Description: The leukemic cells L5178Y were grown from an inoculum of 4×10^3 cells per ml for a period of 72 hours in the presence of different levels (10^-4 -10^-7 M) of drugs.

leukemic cells L5178Y = test: Animal antitumor activity of liponucleotides (leukemic cell kill in the peritoneal cavity); format: in vivo, mouse; conditions: for PERCENT SURVIVAL: L5178Y i.p., control 100
Description: The leukemic cells L5178Y (4×10^5 cells/mouse) were injected intraperitoneally on day 0. Drugs at various dosages (20 mg/kg, 40 mg/kg and 100 mg/kg) were injected on day 5 and incubated for 2 hours. At the end of the incubations, 5.0 ml of Fischer's medium containing 10% horse serum (FMS) was injected […].). After mixing, 1.0 ml aliquots were withdrawn and transferred to culture tubes containing 5.0 ml of FMS. Cells were centrifuged immediately, washed 2 xs and resuspended in 5.0 ml of FMS. Cell viability was determined by the dilute agar colony method.

[7] = 30 mg/kg daily dosage (first 30 line)
[8] = 30 mg/kg daily dosage (second 30 line)
[9] = 50 mg/kg/day×4, intraperitoneal

Nc1ccn([C@@H]2O[C@H](CO)[C@@H](O)[C@@H]2O)c(=O)n1 [Cytosine Arabinoside, cytosine arabinoside, reference compound]
suppression of CMI-DTH reactions (CMI-DTH reactions; 11 or 50 mg/kg): poorly suppressed | LD10 (LD10 (lethality)): 71 mg/kg/day×4 | reduction of peak (day 4) number of IgM AFC/10^6 spleen cells ([1]; 11 mg/kg/day×4): 63% | reduction of peak (day 5) number of IgG AFC/10^6 spleen cells ([1]; 11 mg/kg/day×4): 55% | peak (day 5) number of IgG AFC/10^6 spleen cells ([1]; 11 mg/kg/day×4, from 494±123): 224±72 AFC/10^6 spleen cells | peak (day 4) number of IgM AFC/10^6 spleen cells ([1]; 11 mg/kg/day×4, from 495±130): 180±28 AFC/10^6 spleen cells | AFC ([1]; 50 mg/kg/day×4): background levels | change in life spans as compared with control animals ([2]; 13 mg/kg×4 (dose "equivalent" to 50 mg of Ia-11-diglyceride by molecular weight), inferred): no change in life spans | % CHANGE IN LIFE SPAN ([2]; 50.0 mg/kg daily i.p. ×4 days): +17.6% | AVERAGE SURVIVAL (DAYS ± S.E.) ([2]; 50.0 mg/kg daily i.p. ×4 days): 20.7 ± 5.4 days | % CHANGE IN WEIGHT ([2]; 50.0 mg/kg daily i.p. ×4 days, control +0.66): -6.90% | prolongation of survival times ([2]; 50 mg/kg/day×4): 18% | inhibition of tumor cell growth ([3]; 200 mg/kg/day×4, determined by palpation): no inhibition of tumor cell growth

CCCCCCCCCCCCCCCC(=O)OCC(COP(=O)(O)OP(=O)(O)OC[C@H]1O[C@@H](n2ccc(N)nc2=O)[C@@H](O)[C@@H]1O)OC(=O)CCCCCCCCCCCCCCC (mixture of isomers) [Ia-11-Dipalmitin, 1-Beta-D-Arabinofuranosylcytosine-5'-diphosphate-DL-1,2-dipalmitin Diammonium Salt]
viability at 100 µM [4]: 65 ± 1.73% | viability at 10 µM [4]: 84.3 ± 0.58% | viability at 1 µM [4]: 90 ± 4.58% | viability at 0.1 µM [4]: 94 ± 3% | PER CENT CHANGE IN LIFE SPAN [5, 7]: +24.0 PER CENT | AVERAGE SURVIVAL [5, 7]: 18.6 ± 0.22 days | PER CENT CHANGE IN WEIGHT [5, 7]: -5.0 PER CENT | PER CENT CHANGE IN LIFE SPAN [5, 8]: +32.0 PER CENT | AVERAGE SURVIVAL [5, 8]: 19.8 ± 0.82 days | PER CENT CHANGE IN WEIGHT [5, 8]: -5.86 PER CENT | PER CENT CHANGE IN LIFE SPAN ([5]; 50 mg/kg daily dosage): +37.3 PER CENT | AVERAGE SURVIVAL ([5]; 50 mg/kg daily dosage): 20.6 ± 0.76 days | PER CENT CHANGE IN WEIGHT ([5]; 50 mg/kg daily dosage): -3.5 PER CENT | in vivo activity relative to cytosine arabinoside ([5]; leukemia L5178Y in vivo (Table 5)): significantly more active than cytosine arabinoside | PERCENT INHIBITION AT 10^-4 M ([6]; 10^-4 M, 72 hours, listed as ara-CDP-dipalmitin, Diammonium Salt): less than 50% | inhibition at 100 µM ([6]; Mus musculus, L5178Y, 72 h, 10^-4 M, 72 hours, read-out: PERCENT INHIBITION AT 10^-4 M): 42% | PERCENT SURVIVAL (leukemic cells L5178Y; 20 mg/kg on day 5, 2 hours): 61% | PERCENT SURVIVAL (leukemic cells L5178Y; 40 mg/kg on day 5, 2 hours): 58% | PERCENT SURVIVAL (leukemic cells L5178Y; 100 mg/kg on day 5, 2 hours): 43%

CCCCCCCCCCCCCCCC(=O)OCC(COP(=O)(O)OP(=O)(O)OC[C@H]1O[C@@H](n2ccc(N)nc2=O)[C@@H](O)[C@@H]1O)OC(=O)CCCCCCCCCCCCCCC (stereo partly shown)
IC50 ([6]; Mus musculus, L5178Y, 72 hours): 14 µM

CCCCCCCCCCCCCCCC(=O)OCC(COP(=O)(O)OP(=O)(O)OC[C@H]1O[C@@H](n2ccc(N)nc2=O)[C@H](O)[C@@H]1O)OC(=O)CCCCCCCCCCCCCCC (mixture of isomers) [Ia-1-Dipalmitin, 1-Beta-D-Ribofuranosylcytosine-5'-Diphosphate-DL-1,2-Dipalmitin Diammonium Salt]
viability at 100 µM [4]: 65.7 ± 5.69% | viability at 10 µM [4]: 76.7 ± 6.66% | viability at 1 µM [4]: 94.7 ± 4.04% | viability at 0.1 µM [4]: 94.7 ± 5.03% | activity relative to the CLNA molecule containing the beta-D-arabinofuranosyl moiety ([4]; in culture (Table 1)): activity comparable to the CLNA molecule | PERCENT SURVIVAL (leukemic cells L5178Y; 20 mg/kg on day 5, 2 hours): 57% | PERCENT SURVIVAL (leukemic cells L5178Y; 40 mg/kg on day 5, 2 hours): 54% | PERCENT SURVIVAL (leukemic cells L5178Y; 100 mg/kg on day 5, 2 hours): 43% | activity relative to the CLNA molecule containing the beta-D-arabinofuranosyl moiety (leukemic cells L5178Y; peritoneal cavity (Table 3)): activity comparable to the CLNA molecule

1-Beta-D-Arabinofuranosylcytosine-5'-diphosphate-L-diglyceride Diammonium Salt [Ia-11-Diglyceride]
delay of peak DTH response (CMI-DTH reactions; 50 mg/kg, (day 4-7) or more): ≥ 3 days | immunostimulatory activity on DTH (CMI-DTH reactions; 50 mg/kg, later periods, judged by very late rising profile of response): may have immunostimulatory activity on DTH at later periods | IgG AFC/10^6 spleen cells [1, 9]: background levels | IgG AFC/spleen [1, 9]: background levels | IgM AFC/10^6 spleen cells [1, 9]: background levels | IgM AFC/spleen [1, 9]: background levels | suppression of IgM and IgG AFC relative to cytosine arabinoside "equivalent" ([1]; mouse, in vivo): more pronounced suppression | % CHANGE IN LIFE SPAN ([2]; 12.5 mg/kg daily i.p. ×4 days): +29.6% | AVERAGE SURVIVAL (DAYS ± S.E.) ([2]; 12.5 mg/kg daily i.p. ×4 days): 22.0 ± 0.6 days | % CHANGE IN LIFE SPAN ([2]; 25.0 mg/kg daily i.p. ×4 days): +44.3% | AVERAGE SURVIVAL (DAYS ± S.E.) ([2]; 25.0 mg/kg daily i.p. ×4 days): 25.4 ± 1.1 days | % CHANGE IN LIFE SPAN ([2]; 50.0 mg/kg daily i.p. ×4 days): +93.2% | AVERAGE SURVIVAL (DAYS ± S.E.) ([2]; 50.0 mg/kg daily i.p. ×4 days): 34.0 ± 2.4 days | log cell kill ([2]; 50 mg/kg/day×4): 4 log | prolongation of survival times ([2]; 50 mg/kg/day×4): 93% | difference in antitumor activity in vivo vs Ia-11-dipalmitin ([2]; Table 4 compared with Table 5): significant difference in antitumor activity in vivo | in vivo activity relative to cytosine arabinoside ([2]; leukemia L5178Y in vivo (Table 4)): significantly more active than cytosine arabinoside | antitumor activity in culture relative to Ia-11-dipalmitin ([6]; in culture (Table 2)): superior activity | PER CENT OF CONTROL TUMOR WEIGHT ([3]; 25 mg/kg daily i.p. ×4 days): 68.4 ± 15.6 PER CENT | TUMOR WEIGHT ([3]; 25 mg/kg daily i.p. ×4 days): 61.3 ± 14.0 mg | PER CENT OF CONTROL TUMOR WEIGHT ([3]; 50 mg/kg daily i.p. ×4 days, *P 0.005 (1tailed "t" test)): 21.0 ± 13.5 PER CENT | TUMOR WEIGHT ([3]; 50 mg/kg daily i.p. ×4 days): 18.7 ± 12.0 mg | inhibition of tumor growth ([3]; 50 mg/kg/day×4, excised tumors weighed, vs non-treated control): 80%

Nc1ccn([C@@H]2O[C@H](COP(=O)(O)O)[C@@H](O)[C@@H]2O)c(=O)n1 [Cytosine Arabinoside 5'-Phosphate]
viability at 100 µM [4]: 54.8 ± 1.54% | viability at 10 µM [4]: 87.5 ± 5.18% | viability at 1 µM [4]: 93 ± 8.9% | viability at 0.1 µM [4]: 99 ± 5.21% | IC50 ([6]; Mus musculus, L5178Y, 72 hours): 0.27 µM
